Test results: patent US8372831B2, “Isoxazoline linked pyrrolo[2,1-c][1,4]benzodiazepine hybrids as potential anticancer agents and the process for preparation thereof” (Council of Scientific & Industrial Research, priority 2008, dated 2013)

How the values were obtained:
K-562 = experiment: NCI SRB cytotoxicity, K-562 (leukemia); type: cell-based, human
Protocol: (§1) Biological Activity: The in vitro biological activity studies were carried out at the National Cancer Institute, Maryland, USA.
(§2) The C8-linked isoxazoline-PBD hybrids have been tested against sixty human tumour cell lines derived from nine cancer types (leukemia, non-small cell lung cancer, colon cancer, CNS cancer, melanoma, ovarian cancer, renal cancer, prostate cancer and breast cancer) as per NCI protocol. For each compound, dose response curves for individual cell lines have been measured at a minimum of five concentrations at 10 fold dilutions. A protocol of 48 hrs continuous drug exposure has been used, and a sulforhodamine B (SRB) protein assay was used to estimate cell viability or growth. The concentration for 50% cell growth inhibition (GI50), total cell growth inhibition (TGI, 0% growth) and 50% cell death (LC50, […]) compared with the control has been calculated (FIG. 2).
(§3) Compound 5b and 9b have been evaluated for in vitro cytotoxicity in sixty cell lines from nine human cancer types of lung (Hop-62, NCI-H226, NCI-H522), leukemia (K-562, SR), colon (HCT-116, HCT-15, HCC-2998), CNS(SF-539), melanoma (SK-MEL-5, UACC-62, M14), ovarian (IGROV1), renal (A498), prostate (PC3) breast (BT-549, MDA-MB-435, HS578T) origin. The results are expressed as percent of cell growth determined relative to that of untreated control cells (Table 1).

RXF 393 = experiment: NCI SRB cytotoxicity, RXF 393 (renal); type: cell-based, human; details: 48 hrs exposure
Protocol: as §1, §2, §3

SK-MEL-5 = experiment: NCI SRB cytotoxicity, SK-MEL-5 (melanoma); type: cell-based, human
Protocol: as §1, §2, §3

UACC-257 = experiment: NCI SRB cytotoxicity, UACC-257 (melanoma); type: cell-based, human; details: 48 hrs exposure
Protocol: as §1, §2, §3

786-0 = experiment: NCI SRB cytotoxicity, 786-0 (renal); type: cell-based, human; details: 48 hrs exposure
Protocol: as §1, §2, §3

U251 = experiment: NCI SRB cytotoxicity, U251 (CNS); type: cell-based, human; details: 48 hrs exposure
Protocol: as §1, §2, §3

SNB-75 = experiment: NCI SRB cytotoxicity, SNB-75 (CNS); type: cell-based, human; details: 48 hrs exposure
Protocol: as §1, §2, §3

MDA-MB- = experiment: NCI SRB cytotoxicity, MDA-MB- (breast); type: cell-based, human; details: 48 hrs exposure
Protocol: as §1, §2, §3

A549/ATCC = experiment: NCI SRB cytotoxicity, A549/ATCC (non-small cell lung); type: cell-based, human; details: Non-smallcell lung, 48 hrs exposure
Protocol: as §1, §2, §3

LOX IMVI = experiment: NCI SRB cytotoxicity, LOX IMVI (melanoma); type: cell-based, human; details: 48 hrs exposure
Protocol: as §1, §2, §3

MCF7 = experiment: NCI SRB cytotoxicity, MCF7 (breast); type: cell-based, human; details: 48 hrs exposure
Protocol: as §1, §2, §3

CCRF-CEM = experiment: NCI SRB cytotoxicity, CCRF-CEM (leukemia); type: cell-based, human; details: 48 hrs exposure
Protocol: as §1, §2, §3

NCI-H460 = experiment: NCI SRB cytotoxicity, NCI-H460 (non-small cell lung); type: cell-based, human; details: NCI-H460, Non-smallcell lung; 48 hrs exposure
Protocol: as §1, §2, §3

HCC-2998 = experiment: NCI SRB cytotoxicity, HCC-2998 (colon); type: cell-based, human
Protocol: as §1, §2, §3

OVCAR-4 = experiment: NCI SRB cytotoxicity, OVCAR-4 (ovarian); type: cell-based, human; details: 48 hrs exposure
Protocol: as §1, §2, §3

Renal = experiment: NCI SRB cytotoxicity, renal cancer panel; type: cell-based, human; details: average of six to eight different cancer cell lines; for Log10 LC50: 50% lethality
Protocol: as §1, §2, §3

COLO 205 = experiment: NCI SRB cytotoxicity, COLO 205 (colon); type: cell-based, human; details: 48 hrs exposure
Protocol: as §1, §2, §3

[1] = test system: Non small cell lung cancer; experiment: NCI SRB cytotoxicity, non-small cell lung cancer panel; type: cell-based, human; details: average of six to eight different cancer cell lines; for Log10 LC50: 50% lethality
Protocol: as §1, §2, §3

SF-268 = experiment: NCI SRB cytotoxicity, SF-268 (CNS); type: cell-based, human; details: 48 hrs exposure
Protocol: as §1, §2, §3

DU-145 = experiment: NCI SRB cytotoxicity, DU-145 (prostate); type: cell-based, human; details: 48 hrs exposure
Protocol: as §1, §2, §3

MOLT-4 = experiment: NCI SRB cytotoxicity, MOLT-4 (leukemia); type: cell-based, human; details: 48 hrs exposure
Protocol: as §1, §2, §3

Leukemia = experiment: NCI SRB cytotoxicity, leukemia panel; type: cell-based, human; details: average of six to eight different cancer cell lines; for Log10 LC50: 50% lethality
Protocol: as §1, §2, §3

MDA-MB-435 = experiment: NCI SRB cytotoxicity, MDA-MB-435 (breast); type: cell-based, human
Protocol: as §1, §2, §3

CAKI-1 = experiment: NCI SRB cytotoxicity, CAKI-1 (renal); type: cell-based, human; details: 48 hrs exposure
Protocol: as §1, §2, §3

SW-620 = experiment: NCI SRB cytotoxicity, SW-620 (colon); type: cell-based, human; details: 48 hrs exposure
Protocol: as §1, §2, §3

OVCAR-8 = experiment: NCI SRB cytotoxicity, OVCAR-8 (ovarian); type: cell-based, human; details: 48 hrs exposure
Protocol: as §1, §2, §3

EKVX = experiment: NCI SRB cytotoxicity, EKVX (non-small cell lung); type: cell-based, human; details: Non-smallcell lung, 48 hrs exposure
Protocol: as §1, §2, §3

NCI-H322M = experiment: NCI SRB cytotoxicity, NCI-H322M (non-small cell lung); type: cell-based, human; details: Non-smallcell lung, 48 hrs exposure
Protocol: as §1, §2, §3

T-47D = experiment: NCI SRB cytotoxicity, T-47D (breast); type: cell-based, human; details: 48 hrs exposure
Protocol: as §1, §2, §3

[2] = test system: duplex-form calf thymus DNA (CT-DNA); experiment: Thermal denaturation studies with calf thymus DNA; type: binding; details: [PBD]:[DNA] molar ratio 1:5, CT-DNA 100 μM, ligand 20 μM, pH 7.00
Protocol: Compounds have been subjected to thermal denaturation studies with duplex-form calf thymus DNA (CT-DNA) using a modification of a reported procedure. Working solutions in aqueous buffer (10 mM NaH2PO4/Na2HPO4, 1 mM Na2EDTA, pH 7.00+0.01) containing CT-DNA (100 (μm in phosphate) and the PBD (20(μm) have been prepared by addition of concentrated PBD solutions in DMSO to obtain a fixed [PBD]/[DNA] molar ratio of 1:5. The DNA-PBD solutions have been incubated at 37° C. for 0 and 18 hrs prior to analysis. Samples have been monitored at 260 nm using a Beckman DU-800 spectrophotometer fitted with high performance temperature controller, and heated at 1° C. min^−1 in the 40-110° C. range. DNA helix→coil transition temperatures (Tm) have been obtained from the maxima in the d(A260)/d T derivative plots. Drug-induced alterations in DNA melting behavior are given by: ΔTm=Tm(DNA+PBD)−Tm(DNA alone), where the Tm value for the PBD-free CT-DNA is 68.5±0.01.
The DNA-binding for these novel C8-linked isoxazoline-PBD hybrids has been examined by thermal denaturation studies using calf thymus CT-DNA. […] Data for 5a-c, 9b and 9g and DC-81 are included in Table 4 for comparison.

[3] = K-562, Leukemia, 48 hrs exposure
[4] = SK-MEL-5, Melanoma, 48 hrs exposure
[5] = HCC-2998, Colon, 48 hrs exposure
[6] = MDA-MB-435, Breast, 48 hrs exposure

SMILES: COc1cc(C2=NOC(c3cc(OC)c(OC)c(OC)c3)C2)ccc1OCCCCOc1cc2c(cc1OC)C(=O)N1CCC[C@H]1C=N2 (stereo partly drawn) [Compound 5b, (11aS)-7-(methyloxy)-8-(4-[(2-(methyloxy)-4-5-[3,4,5-tri(methyloxy)phenyl]-4,5-dihydro-3-isoxazolylphenyl)oxy]butyloxy)-2,3,5,11a-tetrahydro-1H benzo[e]pyrrolo[1,2-a][1,4]diazepin-5-one]
- GI50 (K-562; [3]): 120 nM
- GI50 (K-562; leukemia K-562): 120 nM
- GI50 (RXF 393): 210 nM
- GI50 (SK-MEL-5; [4]): 160 nM
- GI50 (SK-MEL-5; melanoma SK-MEL-5): 200 nM
- GI50 (UACC-257): 270 nM
- GI50 (786-0): 280 nM
- GI50 (U251): 300 nM
- GI50 (SNB-75): 320 nM
- GI50 (MDA-MB-): 190 nM
- GI50 (A549/ATCC): 260 nM
- GI50 (LOX IMVI): 220 nM
- GI50 (MCF7): 200 nM
- GI50 (CCRF-CEM): 160 nM
- GI50 (NCI-H460): 210 nM
- GI50 (HCC-2998; [5]): 190 nM
- GI50 (HCC-2998; colon cancer HCC-2998): 190 nM
- GI50 (OVCAR-4): 400 nM
- Log10 LC50 (Renal): −4.94 mol/L
- Log10GI50 (Renal): −6.58 mol/L
- GI50 (COLO 205): 210 nM
- Log10 LC50 [1]: −4.78 mol/L
- Log10GI50 [1]: −6.59 mol/L
- GI50 (SF-268): 340 nM
- GI50 (DU-145): 320 nM
- GI50 (MOLT-4): 200 nM
- Log10 LC50 (Leukemia): −4.18 mol/L
- Log10GI50 (Leukemia): −6.76 mol/L
- GI50 (MDA-MB-435; [6]): 170 nM
- GI50 (MDA-MB-435; breast MDA-MB-435): 170 nM
- GI50 (CAKI-1): 250 nM
- GI50 (SW-620): 230 nM
- GI50 (OVCAR-8): 370 nM
- GI50 (EKVX): 460 nM
- GI50 (NCI-H322M): 340 nM
- GI50 (T-47D): 280 nM
- ΔTm after incubation at 37° C. for 0 hrs [2]: 4.1 °C
- ΔTm after incubation at 37° C. for 18 hrs [2]: 6.2 °C

SMILES: COc1ccc(C2CC(c3ccc(OC)c(OC)c3OC)=NO2)cc1OCCCCOc1cc2c(cc1OC)C(=O)N1CCC[C@H]1C=N2 (stereo partly drawn) [Compound 9b, (11aS)-7-(methyloxy)-8-(4-[(2-(methyloxy)-5-3-[2,3,4-tri(methyloxy)phenyl]-4,5-dihydro-5-isoxazolylphenyl)oxy]butyloxy)-2,3,5,11a-tetrahydro-1H-benzo[e]pyrrolo[1,2-a][1,4]diazepin-5-one]
- GI50 (K-562; [3]): 1260 nM
- GI50 (RXF 393): 1390 nM
- GI50 (SK-MEL-5; [4]): 1470 nM
- GI50 (UACC-257): 2330 nM
- GI50 (786-0): 1570 nM
- GI50 (U251): 1730 nM
- GI50 (SNB-75): 1710 nM
- GI50 (MDA-MB-): 1150 nM
- GI50 (A549/ATCC): 2330 nM
- GI50 (LOX IMVI): 1470 nM
- GI50 (MCF7): 1750 nM
- GI50 (CCRF-CEM): 1410 nM
- GI50 (NCI-H460): 1850 nM
- GI50 (HCC-2998; [5]): 1580 nM
- GI50 (OVCAR-4): 2070 nM
- Log10 LC50 (Renal): −4.77 mol/L
- Log10GI50 (Renal): −5.62 mol/L
- GI50 (COLO 205): 1960 nM
- Log10 LC50 [1]: −4.73 mol/L
- Log10GI50 [1]: −5.70 mol/L
- GI50 (SF-268): 1890 nM
- GI50 (DU-145): 2480 nM
- GI50 (MOLT-4): 1850 nM
- Log10 LC50 (Leukemia): −4.37 mol/L
- Log10GI50 (Leukemia): −5.83 mol/L
- GI50 (MDA-MB-435; [6]): 3540 nM
- GI50 (CAKI-1): 3090 nM
- GI50 (SW-620): 1550 nM
- GI50 (OVCAR-8): 2550 nM
- GI50 (EKVX): 3680 nM
- GI50 (NCI-H322M): 3460 nM
- GI50 (T-47D): 1310 nM
- ΔTm after incubation at 37° C. for 0 hrs [2]: 1.2 °C
- ΔTm after incubation at 37° C. for 18 hrs [2]: 2.3 °C
